Where two headings read alike, the source gives them in different places.
Columns and labels:
[1] = test system: TGF-β; experiment: TGF-β inhibitory activity using THP1 cells differentiated into macrophages; format: cell-based; conditions: Homo sapiens, read-out: TFG-β Inhibitory Activity (Test Example 6)
[2] = test system: oxazolone-induced auricle edema, BALB/c mice; experiment: Hapten repeated application mouse chronic dermatitis model (oral, topical); format: in vivo; conditions: for Mouse Chronic Dermatitis Model (Test Example 8), Oral: edema suppression rate: 0.3 to 10 mg/kg twice a day for 10 days; for Mouse Chronic Dermatitis Model (Test Example 8), Topical: edema suppression rate: 20 μL of 0.3 to 3% solution once or twice a day for 10 days
In short: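 Female BALB/c mice aged 7–8 weeks were sensitised abdominally with 3% oxazolone, then challenged on both ears with 1% oxazolone. From week 1, test compound was given for 10 days orally at 0.3–10 mg/kg twice daily in 0.5% MC, or topically at 0.3–3% once or twice daily. Ear-thickness change measured by dial gauge gave edema suppression versus vehicle control.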

[3] = Hepatic metabolic stability (rat liver microsome method); format: in vitro ADME; conditions: rat liver microsomes 0.5 mg/mL, test substance 1 μM, NADPH 1 mM, 37° C., 30 minutes
In short: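 Scored by % parent left after 30 min (30 min/0 min ×100, LC-MS), banded A ≥75%, B 60–<75%, C 45–<60%, D <45%. Incubation: 1 μM compound, 0.5 mg/mL rat microsomes, pH 7.4 phosphate buffer, 37° C, 5 min preincubation, NADPH 1 mM started, acetonitrile quench.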

[4] = test system: oxazolone-induced auricle edema, BALB/c mice; experiment: Mouse delayed type hypersensitivity (DTH) model (topical); format: in vivo; conditions: 20 μL applied to auricle, 24 hours after application
Method: Evaluation was carried out using female BALB/c mice (7 to 8 weeks of age). First, the hair of the abdomen of the mice was treated with a hair clipper, and then 150 μL of a 3% oxazolone acetone/ethanol solution was applied to the abdomen as a hapten. Five days later, 20 μL/ear of a 1% oxazolone.acetone/ethanol solution was applied to the outer surface of the auricle of both ears of the mouse to induce inflammation. Thirty minutes after the start of inflammation induction, 20 μL of the test compound dissolved in an acetone/ethanol solution was applied to the auricle. A 1% oxazolone was not applied to the blank. The control was one in which 1% oxazolone was applied and only an acetone/ethanol solution was applied without using the test compound. The auricle thickness 24 hours after application of the test compound was measured with a dial thickness gauge, and the value obtained by subtracting the blank value was used to calculate the edema suppression rate by the following formula. Edema Suppression Rate (%)={1−(Value at Addition of Each Test Compound−Blank Value)/(Control Value−Blank Value)}×100 The measurement results obtained by measuring the edema suppression rate at the time of topical administration of each test compound by the above method were evaluated in accordance with the following evaluated basis; A: 60% or more, B: 40% or more and less than 60%, and C: less than 40%.

[5] = THP-1, THP1 cells differentiated into macrophages, lipopolysaccharide 1 μg/mL, about 7 hours

Row | SMILES | IC50 ([1]; THP-1, 7 h) [nM] | Mouse Chronic Dermatitis Model (Test Example 8), Oral: edema suppression rate [2] | Residual ratio (% remaining for 30-minute reaction) [3] | IC50 [1, 5] [nM] | Mouse Chronic Dermatitis Model (Test Example 8), Topical: edema suppression rate [2] | Mouse DTH Model (Test Example 11), Topical: edema suppression rate [4]
1 | CCOc1cc([C@@H](CS(C)(=O)=O)N2C(=O)c3cccc(NC(C)=O)c3C2=O)ccc1OC [apremilast, reference compound] | > 1000 | B (B: 40% or more and less than 70%) |  |  |  | 
2 | CC(C)(O)C(F)(F)Oc1ccc(-c2nccs2)c2oc(N3CC4CC(C3)N4)nc12 [Example 248, 1-((2-(3,6-Diazabicyclo[3.1.1]heptan-3-yl)-7-(thiazol-2-yl)benzo[d]oxazol-4-yl)oxy)-1,1-difluoro-2-methylpropan-2-ol] |  | A (A: 70% or more) | A (A: a % remaining rate of 75% or more) | < 1000 | A (A: 100% or more) | A (A: 60% or more)
3 | CC(O)C(F)(F)Oc1ccc(-c2nccs2)c2oc(N3CC4CC(C3)N4)nc12 (single isomer, unassigned) [Example 252, 1-((2-(3,6-Diazabicyclo[3.1.1]heptan-3-yl)-7-(thiazol-2-yl)benzo[d]oxazol-4-yl)oxy)-1,1-difluoropropan-2-ol] |  | A (A: 70% or more) | A (A: a % remaining rate of 75% or more) |  | A (A: 100% or more) | B (B: 40% or more and less than 60%)
4 | FC(F)(F)Oc1ccc(-c2nccs2)c2oc(N3CC4CC(C3)N4)nc12 [Example 29, 2-(3,6-Diazabicyclo[3.1.1]heptan-3-yl)-7-(thiazol-2-yl)-4-(trifluoromethoxy)benzo[d]oxazole] |  | A (A: 70% or more) | B (B: 60% or more and less than 75%) | < 1000 | A (A: 100% or more) | A (A: 60% or more)

Reference: patent publication US12239643B2, “Therapeutic agent for inflammatory diseases, autoimmune diseases, fibrotic diseases, and cancer diseases” (MEIJI SEIKA PHARMA CO., LTD., priority 2018, dated 2025)
